# Laboratory results: patent publication US20050113371A1, “Antifungal agent for topical use” (priority 2002, published 2005)
# Read-outs that look alike come from different tables or passages of the source.
# Columns and labels:
# [1] = cited from earlier work
# [2] = system: Candida albicans; experiment: Antifungal activity on Sabouraud agar medium, MIC and FIC index (Test Examples 1 and 2); format: cell-based; conditions: for MIC: Candida albicans, 48 h, read-out: Minimum inhibitory concentration (MIC); for FIC index obtained by the combination of amorolfine hydrochloride with another medicine: Test Example 1, amorolfine hydrochloride + medicine at mass ratio 1:1
# Protocol: (§1) Amorolfine hydrochloride and each specimen (hereinafter referred to as “medicine”) at a mass ratio of 1:1 were dissolved in dimethyl sulfoxide (DMSO). Two-fold dilution series were prepared with DMSO. In the determination of the antifungal activity, the medicine and the medium were mixed together at a ratio of 1:99.
# (§2) Sabouraud agar medium (Eiken) was used as a susceptibility determination medium. A microbe suspension containing 10^6 spores/mL of Candida albicans or about 10^6 conidia/mL of ringworm fungus was prepared. 5 μl of the suspension was inoculated on the Sabouraud agar medium containing the medicine with a micro-planter (a product of Sakuma Seisakusho). Candida albicans was cultured for 2 days and the tinea was cultured for 7 days.
# The effect obtained by the combination was judged on the basis of the following standards (FIC index): • >2: antagonism • 2>and 1<: additive action • 1>: potentiation
# (1) Amorolfine hydrochloride and each specimen (hereinafter referred to as “medicine”) at a mass ratio of 100:1 to 1:100 were dissolved in dimethyl sulfoxide (DMSO). Two-fold dilution series were prepared with DMSO. In the determination of the antifungal activity, the medicine and the medium were mixed together at a ratio of 1:99.
# (2) Amorolfine hydrochloride and each specimen (hereinafter referred to as “medicine”) at a mass ratio of 1:3 to 3:1 were dissolved in dimethyl sulfoxide (DMSO). Two-fold dilution series were prepared with DMSO. In the determination of the antifungal activity, the medicine and the medium were mixed together at a ratio of 1:99.
# as §2, with “conidia/mL of each of two kinds of ringworm fungus” for “conidia/mL of ringworm fungus”, “agar medium with a” for “agar medium containing the medicine with a”, “and the Tinea fungus was cultured” for “and the tinea was cultured”
# [3] = system: Trichophyton rubrum; experiment: as above; format: cell-based; conditions: for MIC: Trichophyton rubrum, 168 h, read-out: Minimum inhibitory concentration (MIC); for FIC index obtained by the combination of amorolfine hydrochloride with another medicine: Test Example 1, amorolfine hydrochloride + medicine at mass ratio 1:1
# Protocol: as §1
# as §2, with “days. […]” for “days.”
# [4] = system: Trichophyton mentagrophytes; experiment: as above; format: cell-based; conditions: for MIC: Trichophyton mentagrophytes, 168 h, read-out: Minimum inhibitory concentration (MIC); for FIC index obtained by the combination of amorolfine hydrochloride with another medicine: Test Example 1, amorolfine hydrochloride + medicine at mass ratio 1:1
# Protocol: as §1
# as §2, with “days. […]” for “days.”
# [5] = rats, oral; administration from before the pregnancy to the lactation period or perinatal period/lactation period; cited from earlier work
# [6] = system: Trichophyton mentagrophytes TIMM 1189; experiment: Tinea infection model of guinea pigs, culture test (Test Example 3); format: in vivo; conditions: 0.75 mass % in polyethylene glycol 400 (combination 1:2), 0.1 mL once a day for 5 days from 3 days after inoculation; culture on 5th day after last application; 10 loci
# Protocol: Amorolfine hydrochloride and each specimen (hereinafter referred to as “medicine”) at a mass ratio of 1:2 were dissolved in polyethylene glycol 400 to obtain a final concentration of 0.75% mass ratio. Each of amorolfine hydrochloride and the medicines was separately dissolved in polyethylene glycol 400 to obtain solutions having the final concentration of 0.75 mass %.
# Male Hartley guinea pigs (Japan SLC Co., Ltd.; 6 weeks) were used. In the course of the test, they were kept separately from one another in an isolator (Negative rack, CLEA JAPAN, Inc.). They could freely have a solid food (G standard, Nihon Nosan Kogyo KK) and water.
# Trichophyton mentagrophytes TIMM 1189 was cultured on slant Sabouraud glucose agar medium at 27° C. for 14 days. Then, sterilized saline containing 0.05% of Tween 80 was added thereto to obtain conidia. The resultant suspension was filtered through a cell strainer (FALCON Co., Ltd.) to remove large mycelian masses. The number of conidia was counted with hemocytometer. The conidia were diluted to 4×10^7/mL with sterilized saline containing 0.05% of Tween 80 to obtain the conidial suspension for inoculation.
# The back of each guinea pig was shaved. Then, a circular inoculation part having a diameter of 2 cm was positioned on both sides of the spinal column. A gummed tape was applied thereto and then peeled. These steps was repeated three times, whereby the hair was pulled out of the skin in both parts and, at the same time, the top of the corneous layer of the skin was peeled off. The remaining hair was completely removed with tweezers. […]
# When at least one of the 10 small pieces taken from one inoculated locus of the skin was the positive after the culture, the inoculated locus was judged to be positive. The ratio of positive loci after culture was calculated from the number of the cultured positive pieces in the total 10 inoculated loci in each experiment group.
# The number of the cultured positive small pieces in the inoculated portion was scored as will be described below to determine the infection. […]
# [7] = cited from earlier work; remark: listed apart in the source
# [8] = cited from earlier work; remark: listed apart in the source
# [9] = in vivo; cited from earlier work
# [10] = system: Candida; conditions: cited from earlier work
# [11] = rabbit, in vivo; cited from earlier work
# [12] = Test Example 2, geometric mean MIC of two strains, cultured 7 days
smiles,measurement,setting,value
"CCC(C)(C)c1ccc(CC(C)CN2CC(C)OC(C)C2)cc1.Cl (racemic) [amorolfine hydrochloride, (±)-cis-2,6-dimethyl-4-[3-[4-(1,1-dimethylpropyl)phenyl]-2-methylpropyl]-morpholine monohydrochloride]",LD50,"[1]; mice, intraperitoneal injection, female",239 mg/kg
same,LD50,"[1]; mice, intraperitoneal injection, male",205 mg/kg
same,LD50,"[1]; mice, intravenous injection, female",112 mg/kg
same,LD50,"[1]; mice, intravenous injection, male",141 mg/kg
same,LD50,"[1]; mice, oral, female",2406 mg/kg
same,LD50,"[1]; mice, oral, male",2514 mg/kg
same,LD50,"[1]; mice, subcutaneous, male and female",> 5000 mg/kg
same,MIC,[2],1 µg/mL
same,MIC,[3],0.016 µg/mL
same,MIC,[4],0.031 µg/mL
same,dose with an influence on the survival rate of newborn babies,[5],at least 10 mg/kg/day
same,rate of positive loci after culture,[6],100%
same,LD50,"[7]; rats, intraperitoneal injection, female",465 mg/kg
same,LD50,"[7]; rats, intraperitoneal injection, male",468 mg/kg
same,LD50,"[7]; rats, oral, female",1756 mg/kg
same,LD50,"[7]; rats, oral, male",1960 mg/kg
same,LD50,"[7]; rats, subcutaneous, male and female",> 2000 mg/kg
same,LD50,"[8]; dogs, oral, male and female",> 1000 mg/kg
same,LD50,"[8]; dogs, subcutaneous, male",> 2500 mg/kg
Cc1cc(C2CCCCC2)n(O)c(=O)c1.NCCO [Ciclopyrox olamine],FIC index obtained by the combination of amorolfine hydrochloride with another medicine,[2]; cultured 2 days,0.38
same,FIC index obtained by the combination of amorolfine hydrochloride with another medicine,[3]; cultured 7 days,1.0
same,FIC index obtained by the combination of amorolfine hydrochloride with another medicine,[4]; cultured 7 days,1.0
N#C/C(=C1/SCC(c2ccccc2Cl)S1)n1ccnc1 (centres unmarked) [Lanoconazole],FIC index obtained by the combination of amorolfine hydrochloride with another medicine,[2]; cultured 2 days,0.53
same,FIC index obtained by the combination of amorolfine hydrochloride with another medicine,[3]; cultured 7 days,1.25
same,FIC index obtained by the combination of amorolfine hydrochloride with another medicine,[4]; cultured 7 days,1.00
Cc1cccc(N(C)C(=S)Oc2ccc3ccccc3c2)c1 [Tolnaftate],FIC index obtained by the combination of amorolfine hydrochloride with another medicine,[2]; cultured 2 days,0.38
same,FIC index obtained by the combination of amorolfine hydrochloride with another medicine,[3]; cultured 7 days,0.35
same,FIC index obtained by the combination of amorolfine hydrochloride with another medicine,[4]; cultured 7 days,1.25
"CN(Cc1ccc(C(C)(C)C)cc1)Cc1cccc2ccccc12.Cl [butenafine hydrochloride, N-4-tert-butylbenzyl-N-methyl-1-naphthalenemethylamine hydrochloride]",toxicity on the reproduction or development,[9],No toxicity was found
same,LD50,"[1]; ICR male and female mice, intravenous injection",> 140 mg/kg
same,LD50,"[1]; ICR male and female mice, oral",> 5000 mg/kg
same,LD50,"[1]; ICR male and female mice, percutaneous",> 800 mg/kg
same,LD50,"[1]; ICR male and female mice, subcutaneous",> 200 mg/kg
same,MIC,"[2]; Test Example 2, geometric mean MIC of two strains, cultured 2 days",> 8 µg/mL
same,FIC index obtained by the combination of amorolfine hydrochloride with another medicine,[2]; cultured 2 days,0.38
same,Minimum inhibitory concentration (MIC),"[2]; Test Example 2, geometric mean MIC of two strains, cultured 2 days, listed as B, hydrochloride",>8.0 µg/mL
same,FIC index obtained by the combination of amorolfine hydrochloride with another medicine,[3]; cultured 7 days,0.38
same,MIC,[3]; [12],0.004 µg/mL
same,FIC index obtained by the combination of amorolfine hydrochloride with another medicine,[4]; cultured 7 days,0.49
same,MIC,[4]; [12],0.016 µg/mL
same,antifungal effect on Candida,[10],ineffective
same,rate of positive loci after culture,[6],100%
same,LD50,"[7]; Wistar rats, intravenous injection, female",≥ 100 mg/kg
same,LD50,"[7]; Wistar rats, intravenous injection, male",> 100 mg/kg
same,LD50,"[7]; Wistar rats, oral, male and female",> 4000 mg/kg
same,LD50,"[7]; Wistar rats, percutaneous, male and female",> 1000 mg/kg
same,LD50,"[7]; Wistar rats, subcutaneous, male and female",> 150 mg/kg
same,localized irritation,[11],weak
same,LD50,"[8]; Beagle dogs, male, oral",> 5000 mg/kg
same,LD50,"[8]; Beagle dogs, male, percutaneous",> 100 mg/kg
